Experimental data as given in PMC2834185 (Nature chemical biology, 2010).
Entries after “also recorded” stand apart in the source; their conditions may differ.

Assays:
[1] = test system: embryonic zebrafish; assay: photomotor response; type: in vivo; settings: for effect on PMR latency period / effect on PMR excitation phase (motor response to the first stimulus) / effect on PMR refractory period (response to the second stimulus) / effect on motor activity in the PMR: embryonic zebrafish; for effect on PMR latency period / effect on PMR excitation phase (motor response to the first stimulus) / effect on motor activity in the PMR: light stimulus; for effect on PMR refractory period (response to the second stimulus): second light pulse; for suppression of AzMet behavioral effects (PMR excitation): AzMet co—treated with 2—PAM and atropine
[2] = test system: embryonic zebrafish; assay: embryonic touch response; type: in vivo; settings: touch stimulus
[3] = molecular target: purified AChE (Homo sapiens, UniProt P22303); assay: AChE activity assay in vitro; settings: 10 μM
purified AChE, sequence (P22303 32-614): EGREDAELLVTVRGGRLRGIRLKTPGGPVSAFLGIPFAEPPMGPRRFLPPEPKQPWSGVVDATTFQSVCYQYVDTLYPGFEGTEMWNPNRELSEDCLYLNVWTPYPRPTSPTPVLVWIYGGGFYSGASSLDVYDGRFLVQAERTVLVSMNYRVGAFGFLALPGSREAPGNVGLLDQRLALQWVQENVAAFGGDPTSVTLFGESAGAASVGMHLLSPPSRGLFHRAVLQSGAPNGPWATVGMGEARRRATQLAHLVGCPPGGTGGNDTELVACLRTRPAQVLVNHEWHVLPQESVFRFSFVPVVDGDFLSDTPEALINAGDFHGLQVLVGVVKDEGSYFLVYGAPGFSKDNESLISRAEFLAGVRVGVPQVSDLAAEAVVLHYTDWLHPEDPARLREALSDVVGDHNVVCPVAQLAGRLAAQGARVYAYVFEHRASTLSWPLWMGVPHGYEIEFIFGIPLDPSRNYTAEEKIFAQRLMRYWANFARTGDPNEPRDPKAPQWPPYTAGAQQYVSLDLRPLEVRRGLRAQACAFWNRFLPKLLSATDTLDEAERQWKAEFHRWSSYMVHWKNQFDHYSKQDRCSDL

[4] = molecular target: T1, MAO—B (Homo sapiens, UniProt P27338); settings: in vitro; warfarin at 10 μM
T1 sequence (P27338 1-520): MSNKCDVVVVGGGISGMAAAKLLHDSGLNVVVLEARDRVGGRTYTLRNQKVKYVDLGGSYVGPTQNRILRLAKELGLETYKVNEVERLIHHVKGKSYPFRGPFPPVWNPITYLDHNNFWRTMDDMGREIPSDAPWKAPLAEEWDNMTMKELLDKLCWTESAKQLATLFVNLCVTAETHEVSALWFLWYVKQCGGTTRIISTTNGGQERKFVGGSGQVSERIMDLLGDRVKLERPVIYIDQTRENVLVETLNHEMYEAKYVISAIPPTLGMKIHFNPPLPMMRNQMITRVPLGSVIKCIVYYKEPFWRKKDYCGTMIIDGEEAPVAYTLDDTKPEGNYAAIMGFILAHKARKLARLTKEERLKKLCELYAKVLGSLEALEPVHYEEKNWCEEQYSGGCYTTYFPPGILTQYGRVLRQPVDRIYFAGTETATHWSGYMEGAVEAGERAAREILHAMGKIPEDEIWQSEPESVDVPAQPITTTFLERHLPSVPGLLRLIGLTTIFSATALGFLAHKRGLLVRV

## Oc1cc2c(cc1O)[C@H]1c3ccccc3CN[C@@H]1CC2 (racemic) [dihydrexidine]
[1]
  effect on PMR latency period: prolonged latency period

## O=[N+]([O-])c1ccc2nc(N3CCNCC3)ccc2c1 [6—nitroquipazine]
[1]
  effect on PMR excitation phase (motor response to the first stimulus): exhibited a robust but brief motor response to the first stimulus
  effect on PMR refractory period (response to the second stimulus): also responded to the second stimulus
[1]; listed as 6—Nitroquipazine
  effect on PMR refractory period (response to the second stimulus): modulates the PMR refractory period

## CCCN1CCO[C@@H]2c3cc(O)ccc3OC[C@H]21 [PD128907]
[1]
  effect on PMR latency period: prolonged latency period

## O=C(CCCN1C(=O)c2ccccc2C1=O)N1CCCCCC1 [STR—1]
[2]
  phenotype in the ETR assay: slow—to—relax (STR) phenotype

## O=C1c2ccccc2-c2nc3ncnn3c(-c3ccccc3Cl)c21 [STR—2]
[2]
  phenotype in the ETR assay: slow—to—relax (STR) phenotype
[3]
  inhibition of purified AChE in vitro: did not inhibit purified AChE in vitro

## CCN1C[C@]2(COC)[C@H](O)C[C@H](OC)[C@@]34[C@@H]5C[C@@]6(O)[C@H](OC(=O)c7ccccc7)[C@@H]5[C@@](OC(C)=O)([C@@H]([C@H](OC)[C@H]23)[C@@H]14)[C@@H](O)[C@@H]6OC [aconitine]
[1]
  effect on PMR excitation phase (motor response to the first stimulus): prolongation of the PMR excitation period

## CN1CCc2cccc3c2[C@H]1Cc1ccc(O)c(O)c1-3 [apomorphine]
[1]
  effect on PMR latency period: lengthened the PMR latency period
[1]; listed as Apomorphine
  effect on PMR latency period: increases PMR latency period duration

## CN1[C@@H]2CC[C@H]1C[C@@H](OC(=O)C(CO)c1ccccc1)C2 (stereo partly drawn) [atropine]
[1]
  suppression of AzMet behavioral effects (PMR excitation): counteracted the behavioral effects of AzMet

## COP(=S)(OC)SCn1nnc2ccccc2c1=O [azinphos methyl]
[1]; compared to untreated controls
  paralysis in zebrafish: caused paralysis in zebrafish
[1]
  effect on PMR excitation phase (motor response to the first stimulus): reduced levels of PMR excitation

## CC(C)(C)NCC(O)c1cc(Cl)c(N)c(Cl)c1 (stereo not drawn) [clenbuterol]
[1]
  effect on motor activity in the PMR: elevated activity in all PMR phases

## CN1C(=O)CN=C(c2ccccc2)c2cc(Cl)ccc21 [diazepam]
[1]
  effect on motor activity in the PMR: decreased activity
[1]; listed as Diazepam
  effect on motor activity in the PMR: reduces motor activity

## C[C@]12CC[C@H](O)C[C@H]1CC[C@@H]1[C@@H]2CC[C@]2(C)[C@@H](C3=CC(=O)OC3)CC[C@]12O [digitoxigenin]
[1]; concentrations above the active range (Supplementary Fig. 1)
  toxicity in the PMR assay: induced toxicities at higher concentrations
[1]
  effect on PMR excitation phase (motor response to the first stimulus): caused a vigorous and prolonged motor response to the stimulus; also recorded: prolongation of the PMR excitation period
[1]; listed as Digitoxigenin
  effect on PMR excitation phase (motor response to the first stimulus): prolongs duration of the PMR excitation phase

## CC(C)[C@@]1(NC(=O)[C@@H]2C[C@@H]3c4cccc5[nH]cc(c45)C[C@H]3N(C)C2)O[C@@]2(O)[C@@H]3CCCN3C(=O)[C@H](Cc3ccccc3)N2C1=O [dihydroergocristine]
[1]
  effect on PMR latency period: prolonged latency period

## CNC[C@H](O)c1ccc(O)c(O)c1 [epinephrine]
[1]
  effect on motor activity in the PMR: elevated activity in all PMR phases

## CNC(=O)Oc1ccc2c(c1)[C@]1(C)CCN(C)[C@@H]1N2C [eserine]
[2]
  phenotype in the ETR assay: slow—to—relax (STR) phenotype

## CC(C)NCC(O)c1ccc(O)c(O)c1 (stereo not drawn) [isoproterenol]
[1]
  effect on motor activity in the PMR: increased motor activity throughout the PMR; also recorded: elevated activity in all PMR phases
[1]; listed as Isoproterenol
  effect on motor activity in the PMR: increases zebrafish motor activity

## C[n+]1ccccc1C=NO [pralidoxime]
[1]
  suppression of AzMet behavioral effects (PMR excitation): counteracted the behavioral effects of AzMet

## C[C@]12CC[C@H]3[C@@H](CC[C@]4(O)C[C@@H](O)CC[C@]34C(=O)O)[C@@]1(O)CC[C@@H]2C1=CC(=O)OC1 [strophanthidinic acid]
[1]
  effect on PMR excitation phase (motor response to the first stimulus): prolongation of the PMR excitation period

## COc1ccc(C(=O)O[C@H]2CC[C@@]3(C)[C@@H]4CC[C@H]5[C@]6(O)C[C@H](O)[C@@]7(O)[C@@H](CN8C[C@@H](C)CC[C@H]8[C@@]7(C)O)[C@]6(O)C[C@@]53O[C@]24O)cc1OC [veratridine]
[1]
  effect on PMR excitation phase (motor response to the first stimulus): prolongation of the PMR excitation period

## CC(=O)CC(c1ccccc1)c1c(O)c2ccccc2oc1=O (stereo not drawn) [warfarin]
[1]; increased PMR excitation magnitude and duration, warfarin at 10 μM
  PMR magnitude stimulant (MAG) phenotype: do not produce a MAG phenotype
[4]
  inhibition of MAO activity: nor inhibit MAO activity
